According to PubChem BioAssay AID1645866 (Buhrlage Lab, Dana-Farber Cancer Institute and Novartis …, 2021):
Active and inactive are the calls of the source.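 The calls were made as follows: active = in confirmatory dose-response testing, peak deubiquitinase inhibition of 30% or more; inactive = the rest.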

Each compound was assayed against Ubiquitin carboxyl-terminal hydrolase 28 (Homo sapiens) (UniProt Q96RU2) (assay: Concentration-response biochemical assay confirming initial hits as inhibitors of ubiquitin-specific protease 28 (AID 1645866)). Details: purified USP28, ubiquitin-rhodamine fluorescence, 30 min.
Ubiquitin carboxyl-terminal hydrolase 28 (Homo sapiens), sequence (Q96RU2 whole entry, looked up): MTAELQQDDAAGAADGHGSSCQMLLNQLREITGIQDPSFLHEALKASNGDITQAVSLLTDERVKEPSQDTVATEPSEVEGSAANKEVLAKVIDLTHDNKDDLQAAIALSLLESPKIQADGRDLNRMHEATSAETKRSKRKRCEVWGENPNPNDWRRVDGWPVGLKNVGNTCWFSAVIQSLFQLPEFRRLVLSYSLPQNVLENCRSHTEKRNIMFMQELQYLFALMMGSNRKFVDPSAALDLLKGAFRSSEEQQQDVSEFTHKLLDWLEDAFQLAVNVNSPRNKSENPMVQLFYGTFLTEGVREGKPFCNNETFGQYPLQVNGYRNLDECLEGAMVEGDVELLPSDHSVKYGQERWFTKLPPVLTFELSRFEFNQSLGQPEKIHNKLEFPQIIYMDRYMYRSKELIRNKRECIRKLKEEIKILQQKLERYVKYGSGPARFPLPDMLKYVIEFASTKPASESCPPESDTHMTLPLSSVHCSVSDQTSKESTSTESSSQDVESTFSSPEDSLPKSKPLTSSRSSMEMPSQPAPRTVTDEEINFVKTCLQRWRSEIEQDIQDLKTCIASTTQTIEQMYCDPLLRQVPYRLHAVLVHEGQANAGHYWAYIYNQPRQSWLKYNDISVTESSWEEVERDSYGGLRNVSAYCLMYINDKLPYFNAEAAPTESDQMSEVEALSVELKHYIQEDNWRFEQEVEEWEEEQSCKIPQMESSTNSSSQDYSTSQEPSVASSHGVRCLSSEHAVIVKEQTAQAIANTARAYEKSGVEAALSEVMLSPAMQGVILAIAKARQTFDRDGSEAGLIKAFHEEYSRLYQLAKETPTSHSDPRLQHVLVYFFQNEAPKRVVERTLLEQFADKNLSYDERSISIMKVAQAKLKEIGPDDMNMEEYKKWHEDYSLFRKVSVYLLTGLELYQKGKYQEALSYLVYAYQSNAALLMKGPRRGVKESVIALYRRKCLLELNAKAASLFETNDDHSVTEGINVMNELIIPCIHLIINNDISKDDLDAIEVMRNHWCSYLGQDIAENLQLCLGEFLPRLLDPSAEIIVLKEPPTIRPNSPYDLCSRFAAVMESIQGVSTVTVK

SMILES	IC50
CCn1c(CN2CCCC(c3nc(-c4cccnc4)n[nH]3)C2)nc2ccccc21 (stereo not given)	3.13 µM
O=C(Cc1noc2ccccc12)N1CCN(c2ccc([N+](=O)[O-])cc2)CC1	> 50 µM (inactive)
CCn1cc2c(n1)c(=O)n(Cc1ccc(C)cc1)c(=O)n2CC(=O)Nc1ccc(F)cc1	11 µM
O=C(NCc1ccccc1Cl)C1CCCN(c2nc3ccsc3c(=O)s2)C1 (stereo not given)	3.22 µM
Cc1cc(O)c(Oc2cc(C)cc(O)c2O)c(O)c1	15.1 µM
COc1ccc(NC(=O)CSc2nnc(Cc3cccc4ccccc34)n2C)cc1	17.5 µM
CC(C)c1cc2c(c(O)c1O)[C@@]13CCCC(C)(C)[C@@H]1C[C@@H]2OC3=O	23.9 µM
CCCc1cc(=O)n2[nH]c(COc3ccccc3)c(-c3ccccc3)c2n1	28.8 µM
CCc1c(Cl)c(O)c(Cl)c(O)c1C(=O)O[C@H]1C(C)O[C@@H](OC/C2=C\C=C\CC(O)/C(C)=C/C(CC)C(O[C@@H]3OC(C)(C)[C@H](O)C(OC(=O)C(C)C)[C@@H]3O)/C(C)=C/C(C)=C/CC(C(C)O)OC2=O)[C@@H](OC)C1O (stereo not given in full)	> 50 µM (inactive)
Cc1nn(-c2ccc([N+](=O)[O-])cc2)c(C)c1-c1nc2ccccc2[nH]1	21 µM
Cc1ccc(-n2c(-c3ccccc3)cn3c4c(=O)[nH]c(=O)n(C)c4nc23)cc1C	0.641 µM
Fc1cc(F)c2[nH]cc(-c3nnnn3-c3ccc4ccccc4c3)c2c1	22 µM
CN[C@H]1CC2(CCN(C(=O)CCCn3cccn3)CC2)OC[C@]1(C)O	> 50 µM (inactive)
CSc1nc(SCC(N)=O)c2c3c(sc2n1)COC(C)(C)C3	27.3 µM
O=C(COc1ccccc1-c1nnc(-c2ccccc2)o1)Nc1ccc(F)cc1F	3.36 µM
CC1CC[C@@]2(NC1)O[C@H]1C[C@H]3[C@@H]4CC=C5C[C@@H](O)CC[C@]5(C)[C@H]4CC[C@]3(C)[C@H]1[C@@H]2C (stereo not given in full)	34.3 µM
CC(C)N1CC2CN(C(=O)c3ccccc3)CCN2Cc2ccccc21 (stereo not given)	> 50 µM (inactive)
CCCCCC(=O)N1c2ccccc2NC2=C(C(=O)CC(c3ccc(C(C)(C)C)cc3)C2)C1c1ccncc1 (stereo not given)	11.4 µM
Cc1cccc(CNC(=O)c2ccc(-c3nnc(-c4cccc(C)c4)o3)cc2)c1	17.7 µM
Cc1ccc2c(c1C)NC(=O)[C@]21[C@@H]2C(=O)N(c3cc(Cl)ccc3Cl)C(=O)[C@@H]2[C@@H]2CCCN21	> 50 µM (inactive)
O=C(Cn1cnc2c(cnn2-c2ccc(Cl)cc2)c1=O)NCc1ccccc1Cl	9.05 µM
Cc1cc(N2CCN(c3ncccn3)CC2)nc2ccc(NC(=O)/C=C/c3ccccc3Cl)cc12	7.79 µM
COc1ccc(C(=O)CSc2nnc(-c3cc4cccc(OC)c4o3)n2C)cc1OC	> 50 µM (inactive)
CCCCOc1ccc(C(=O)Nc2ccc3c(c2)CCC(=O)N3CCC)cc1	1.01 µM

SMILES	IC50
CSc1nc2ncn(CC(=O)Nc3cccc(Cl)c3)c(=O)c2s1	> 50 µM (inactive)
CCCn1c(=O)c(-c2ccc(C(=O)NCc3ccc(OC)cc3)cc2)nc2cccnc21	1.8 µM
Fc1cccc(-n2cc(-c3noc(-c4ccc[nH]4)n3)nn2)c1	27.5 µM
Cc1ccccc1C(=O)c1ccc(C(=O)NC2CCCCCC2)[nH]1	7.45 µM
O=C(NC1(O)C(=O)c2ccccc2C1=O)c1cccc2c1-c1ccccc1C2=O	32.6 µM
Cc1ccc(Cn2nnc(-c3noc(-c4ccc[nH]4)n3)c2C)cc1	11.6 µM
COc1ccccc1NC(=O)CSC1=NC2(CCCCC2)Nc2ccccc21	> 50 µM (inactive)
COc1cc(Cl)ccc1Nc1ncc(C(=O)Nc2cc(OC)c(OC)c(OC)c2)c2ccccc12	< 0.05 µM
Cc1noc(C)c1COc1cccc(C(=O)Nc2cc(Cl)ccc2-n2cncn2)c1	> 50 µM (inactive)
Cc1nc2nc(SCc3nc4ccccc4n3C)[nH]c2cc1Br	2.9 µM
CCOC(=O)c1ccc(NC(=O)Cn2c(=O)n(CC(=O)NCc3ccco3)c(=O)c3ccccc32)cc1	2.31 µM
COc1ccc(-c2[nH]c3ccccc3c2SCCNC(=O)c2ccc(S(=O)(=O)N3CCOCC3)cc2)cc1	30 µM
CCOc1ccccc1-c1nc(-c2nnn(Cc3ccccc3)c2C)no1	> 50 µM (inactive)
O=C(/C=C/c1ccc(F)cc1)Nc1ccc2c(c1)OCCO2	2.47 µM
COc1ccc(C(=O)Nc2sc3c(c2C(=O)NCc2cccnc2)CCCC3)cc1	11.8 µM
CN(C)Cc1ccc(C(=O)Nc2ccc(-c3nccs3)cc2)cc1	1.1 µM
CCCN1CCN(C(=O)c2cc(NC(=O)C3CCC3)cc3nc(C)ccc23)CC1	> 50 µM (inactive)
O=C(COC(=O)c1ccc(NS(=O)(=O)c2ccc3c(c2)OCCO3)cc1)NCc1ccc(Cl)cc1	6.76 µM
CCc1ccc(NC(=O)Cc2nnc(-c3ccc4ncccc4c3)o2)cc1	25.9 µM
CN(C)c1cc(-n2cnc(C(=O)NCc3ccccc3Cl)c2)ncn1	19.8 µM
O=C(Nc1ccccc1)C1CCCN(C(=O)c2cc3ccccc3[nH]2)C1 (stereo not given)	39.1 µM
O=C(Nc1ccccc1Cl)N(Cc1cc2cc3c(cc2[nH]c1=O)OCCO3)C1CCCCC1	49.1 µM
COc1ccc(CNC(=O)c2[nH]nc3c2CCc2ccccc2-3)cc1	36.1 µM
Cc1cc(Cl)ccc1Nc1nc(Nc2cccc(F)c2)nc2nccnc12	> 50 µM (inactive)

SMILES	IC50
COC(=O)c1c(C)[nH]c(C(=O)C(C)OC(=O)CCC2CCCC2)c1C (stereo not given)	1.47 µM
COc1cccc(NC(=O)c2cnc3c(c2)c(=O)n(C)c(=O)n3C)c1	2.43 µM
CCN(CC)C(=O)CN1CCCC(c2ncncc2-c2cc(C)no2)C1 (stereo not given)	> 50 µM (inactive)
CCc1cccc(CC)c1NC(=O)COC(=O)c1cc2cccc(OC)c2oc1=O	16.4 µM
COc1ccccc1NS(=O)(=O)c1ccc2oc(SCC(=O)c3ccccc3)nc2c1	> 50 µM (inactive)
COc1ccc(CNC(=O)CSc2nc3nc(C)ccc3o2)cc1	31.3 µM
O=C(COC(=O)c1ccc2ncsc2c1)Nc1ccccc1F	> 50 µM (inactive)
COc1ccc(-c2nc(C)c(C(=O)NCc3ccc(S(N)(=O)=O)cc3)s2)cc1	> 50 µM (inactive)
O=C1C=C(O)c2c(O)cccc2C1=O	15.7 µM
COc1cc(OC)cc(-n2c(=O)c3sccc3n(CC(=O)c3ccc(F)cc3)c2=O)c1	28 µM
COc1ccc(-c2nc3n(n2)C(CC(=O)Nc2cccc4ccccc24)C(=O)N3)cc1 (stereo not given)	4.08 µM
CC[C@H](C)[C@H](NC(=O)[C@H]([C@@H](C)CC)N(C)C(C)=O)C(=O)N[C@H](C(=O)N[C@@H](CC(C)C)C(=O)C1(C)CO1)[C@@H](C)O (stereo not given in full)	> 50 µM (inactive)
CCOc1ccc(-n2c(C)cc(/C=C(\C#N)c3nc4ccccc4[nH]3)c2C)cc1	> 50 µM (inactive)
Cc1ccc(Nc2nc(O)c(CC(=O)Nc3ccccc3C)s2)cc1C	16.7 µM
Cn1c(=O)sc2cc(NC(=O)c3ccc(Br)cc3)ccc21	2.76 µM
COc1cc(C(=O)Nc2ccc(-c3csc(C)n3)cc2)cc(OC)c1OC	4.04 µM
Cc1ccc(NC(=O)Cn2c(Nc3cccc(C)c3)nc(C)cc2=O)cc1	25.4 µM
COc1ccc(C(=O)CSc2ccc3nnc(CCNC(=O)c4ccc(OC)cc4)n3n2)cc1	> 50 µM (inactive)
CC(=O)Nc1ccc(O)c(-c2nc3cc(C)ccc3o2)c1	3.38 µM
Cc1cc(NC(=O)c2[nH]nc3c2CCc2ccccc2-3)no1	6.37 µM
COc1cccc2sc(N3CCN(c4nc5ccccc5s4)CC3)nc12	> 50 µM (inactive)
CC(c1ccccc1)n1c(-c2ccc(F)cc2)nc2c(c(=O)c3ccccc3n2C)c1=O (stereo not given)	1.85 µM
CCCC(O)CCCCCCCc1cc(O)cc(O)c1C(=O)OC(CCC)CCCCCCCc1cc(O)cc(O)c1 (stereo not given)	25.3 µM
COc1ccc(NC(=O)COc2ccc3ccc(=O)oc3c2)cc1	31.1 µM

SMILES	IC50
O=S1(=O)CCN(Cc2c(F)cccc2F)c2c(F)nc(N3CCOCC3)c(F)c21	> 50 µM (inactive)
C=C(NC(=O)C(=C)NC(=O)c1csc(C2=N[C@@H]3c4csc(n4)[C@H]4NC(=O)c5csc(n5)[C@H]([C@](C)(O)[C@@H](C)O)NC(=O)[C@H]5CSC(=N5)/C(=C/C)NC(=O)C([C@@H](C)O)NC(=O)c5csc(n5)C3(CC2)NC(=O)[C@H](C)NC(=O)C(=C)NC(=O)[C@H](C)NC(=O)C([C@@H](C)CC)N[C@@H]2C=Cc3c(C(C)O)cc(nc3[C@H]2O)C(=O)OC4C)n1)C(N)=O (stereo not given in full)	> 50 µM (inactive)
COc1ccc(C(=O)Nc2n[nH]c(C)c2-c2cccc(C)c2)c(OC)c1	10.3 µM
CCc1ccc2[nH]c3c(c(=O)c2c1)CN(CC(=O)NCc1ccc2c(c1)OCO2)CC3	20 µM
N#Cc1ccccc1Cn1c(=O)n(CCCCC(=O)NCc2ccco2)c(=O)c2ccccc21	36.6 µM
O=C(OCCCN1C(=O)c2cccc3c(N4CCCCC4)ccc(c23)C1=O)c1ccccn1	> 50 µM (inactive)
CCOc1ccc(CCNC(=O)c2ccc3c(c2)N(CC)C(=O)c2ccccc2S3)cc1OCC	1.89 µM
COc1ccc(NC(=O)CC(=O)c2ccc([N+](=O)[O-])cc2)cc1S(=O)(=O)Nc1ccc(Br)cc1	28.1 µM
Cc1nn(CC(=O)NCc2ccccc2F)c2ccccc12	> 50 µM (inactive)
O=C(Nc1ccc2ccccc2n1)c1ccc(Cl)cc1	6.26 µM
Cc1ccc2c(c1)c(=O)c(C(=O)c1ccccc1)cn2CC(=O)Nc1ccc2c(c1)OCCO2	4.21 µM
COc1cc(C#N)c(NC(=NCc2ccc(F)cc2)SC)cc1OC	22.5 µM
Cc1sc(NC(=O)CNc2ccccc2)nc1-c1ccc2c(c1)CCN2C(=O)C(C)C	> 50 µM (inactive)
COc1ccc(NS(=O)(=O)c2cc(NC(=O)CCc3nc4ccccc4s3)ccc2C)cc1	24.1 µM
O=C(COC(=O)c1ccc2[nH]c3c(c2c1)CCCC3)Nc1ccc2c(c1)OCO2	23.6 µM
CCOC(=O)c1ccc(NC(=O)Cn2c(=O)n(CC(=O)NCCc3ccc(OC)c(OC)c3)c(=O)c3sccc32)cc1	1.96 µM
CC(=O)c1sc(NC(=O)c2ccccc2-c2ccc(C(F)(F)F)cc2)nc1C	18.8 µM
N#Cc1ccc(NC(=O)c2ccc(S(=O)(=O)N3CCCCC3)cc2)cc1	27.6 µM
COC(=O)c1ccc(Cn2cnc3ccc(F)cc3c2=O)o1	3.97 µM
CCOC(=O)c1ccc(NC(=O)c2cnc(N3CCOCC3)nc2)cc1	> 50 µM (inactive)
COc1ccc(C2CC(=O)Nc3ccc4ccccc4c32)c(OC)c1OC (stereo not given)	47.8 µM
CC(C)NS(=O)(=O)c1ccc(CCC(=O)Nc2ccc3c(c2)OCCO3)cc1	1.13 µM
Cc1ccccc1NC(=O)c1cc(S(=O)(=O)N2CCCCCC2)ccc1Cl	25.6 µM
